According to patent US12459974B2, “Bicyclic peptide ligands specific for Nectin-4” (priority 2018, dated 2025):
*1 amine or outer side, *2 acyl side, *3 side chain or, on linkers, in order; H or OH if unused. Where a SMILES comes first, the peptide text is derived from it. Bridges are numbered along the chain shown (N, C = ends). TATA = O=C(CC[*:1])N1CN(C(=O)CC[*:2])CN(C(=O)CC[*:3])C1

What follows are molecules tested against T1, human Nectin-4 (Homo sapiens, UniProt Q96NY8) (assay: Nectin-4 competition binding assay (fluorescence polarisation)). Details: competition with fluorescent peptide SEQ ID NO: 217; read-out: Ki.
T1 sequence (Q96NY8 32-510): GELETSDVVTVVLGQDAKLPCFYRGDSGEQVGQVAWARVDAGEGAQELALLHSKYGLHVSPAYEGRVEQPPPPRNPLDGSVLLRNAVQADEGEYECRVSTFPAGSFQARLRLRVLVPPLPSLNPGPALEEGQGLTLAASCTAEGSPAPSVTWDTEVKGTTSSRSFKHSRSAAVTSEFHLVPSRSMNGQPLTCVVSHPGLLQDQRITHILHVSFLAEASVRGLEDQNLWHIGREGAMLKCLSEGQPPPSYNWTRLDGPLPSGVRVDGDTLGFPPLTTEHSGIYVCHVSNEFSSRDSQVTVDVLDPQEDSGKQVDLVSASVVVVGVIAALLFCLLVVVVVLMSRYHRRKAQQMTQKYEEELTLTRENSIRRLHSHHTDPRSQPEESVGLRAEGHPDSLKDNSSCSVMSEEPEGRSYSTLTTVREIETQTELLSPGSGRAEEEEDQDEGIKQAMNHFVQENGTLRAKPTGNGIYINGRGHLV
Procedure, shortened: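 Serially diluted (1 in 2) peptides, max 5% DMSO, were mixed with human Nectin-4 and a fluorescent tracer peptide; FP read as in the direct binding assay. Ki from fitting mP values to a cubic competition equation using tracer concentration, tracer Kd and Nectin-4 concentration.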

| Structure (SMILES) | Ki [nM] |
| --- | --- |
| CC[C@H](C)[C@@H]1NC(=O)[C@@H]2CCCN2C(=O)[C@H](Cc2c[nH]c3ccccc23)NC(=O)[C@H](CO)NC(=O)[C@H](Cc2c[nH]c3ccccc23)NC(=O)[C@H](CC(=O)O)NC(=O)[C@H](CCC(=O)O)NC(=O)[C@H](CCSC)NC(=O)[C@@H]2CSCCC(=O)N3CN(CN(C3)C(=O)CCSC[C@H](NC(=O)[C@@H](NC(=O)[C@H](CC(=O)O)NC(=O)[C@@H](N)CCSC)[C@@H](C)O)C(=O)N3CCC[C@H]3C(=O)N[C@@H](Cc3ccccc3)C(=O)NCC(=O)N2)C(=O)CCSC[C@@H](C(=O)N[C@@H](C)C(N)=O)NC(=O)[C@H](Cc2c[nH]c3ccccc23)NC1=O [BCY3391, MDT-(SEQ ID NO: 49)-A] (H-MDTCPFGCMEDWSWPIWCA-NH2; linker 4-8-18 via TATA; N-terminus and C-terminus assumed) | 198 |
| CC[C@H](C)[C@@H]1NC(=O)[C@H](CCCNC(=N)N)NC(=O)[C@H](CC(N)=O)NC(=O)[C@@H]2CSCCC(=O)N3CN(CN(C3)C(=O)CCSC[C@H](NC(=O)[C@H](Cc3c[nH]c4ccccc34)NC(=O)[C@H](CCCCN)NC(=O)[C@H](C)NC(C)=O)C(=O)N[C@@H](C)C(=O)N3CCC[C@H]3C(=O)N[C@@H](CC(C)C)C(=O)N[C@@H](CO)C(=O)N[C@@H](CC(=O)O)C(=O)N[C@@H](Cc3ccc(O)cc3)C(=O)N[C@@H](Cc3c[nH]c4ccccc34)C(=O)N2)C(=O)CCSC[C@@H](C(N)=O)NC1=O [BCY7622, Ac-AKW-(SEQ ID NO: 34)] (Ac-AKWCAPLSDYWCNRIC-NH2; linker 4-12-16 via TATA; C-terminus assumed) | 31 |
| CC[C@H](C)[C@@H]1NC(=O)[C@@H]2CCCN2C(=O)[C@H](Cc2ccc3ccccc3c2)NC(=O)[C@H](CO)NC(=O)[C@H](Cc2c[nH]c3ccccc23)NC(=O)[C@H](CC(N)=O)NC(=O)[C@H](CCCCN)NC(=O)[C@H](CCSC)NC(=O)[C@@H]2CSCCC(=O)N3CN(CN(C3)C(=O)CCSC[C@H](NC(C)=O)C(=O)N3CCC[C@H]3C(=O)N[C@@H](Cc3ccccc3)C(=O)NCC(=O)N2)C(=O)CCSC[C@@H](C(N)=O)NC(=O)[C@H](Cc2c[nH]c3ccccc23)NC1=O [BCY7592, Ac-(SEQ ID NO: 87)] | 37.4 |
| CC[C@H](C)[C@@H]1NC(=O)[C@H](CCCNC(=N)N)NC(=O)[C@@H]2CCCN2C(=O)[C@@H]2CSCCC(=O)N3CN(CN(C3)C(=O)CCSC[C@@H](C(=O)N3CCC[C@H]3C(=O)N[C@@H](CCC(N)=O)C(=O)N[C@@H](C)C(N)=O)NC1=O)C(=O)CCSC[C@H](NC(=O)[C@H](C)N)C(=O)N[C@@H](Cc1c[nH]c3ccccc13)C(=O)N1CCC[C@H]1C(=O)N[C@@H](CC(C)C)C(=O)N[C@@H](CC(=O)O)C(=O)N[C@@H](CC(=O)O)C(=O)N[C@@H](Cc1ccc(O)cc1)C(=O)N[C@@H](Cc1c[nH]c3ccccc13)C(=O)N2 [BCY3401, A-(SEQ ID NO: 58)-PQA] (H-ACWPLDDYWCPRICPQA-NH2; linker 2-10-14 via TATA; N-terminus and C-terminus assumed) | 154 |
| CC[C@H](C)[C@@H]1NC(=O)[C@@H]2CCCN2C(=O)[C@H](Cc2c[nH]c3ccccc23)NC(=O)[C@H](CO)NC(=O)[C@H](Cc2c[nH]c3ccccc23)NC(=O)[C@H]([C@@H](C)O)NC(=O)[C@H](CCCCN)NC(=O)[C@H](CCSC)NC(=O)[C@@H]2CSCCC(=O)N3CN(CN(C3)C(=O)CCSC[C@H](NC(=O)[C@H](C)N)C(=O)N3CCC[C@H]3C(=O)N[C@@H](Cc3ccccc3)C(=O)NCC(=O)N2)C(=O)CCSC[C@@H](C(=O)N[C@H](C(=O)N[C@@H](CC(=O)O)C(=O)N[C@@H](CCCCN)C(N)=O)[C@@H](C)O)NC(=O)[C@H](Cc2c[nH]c3ccccc23)NC1=O [BCY3394, A-(SEQ ID NO: 52)-TDK] (H-ACPFGCMKTWSWPIWCTDK-NH2; linker 2-6-16 via TATA; N-terminus and C-terminus assumed) | 102 |
